# Values of other authors, collected in patent publication US20100317740A1, “Method for Predicting Response to Tamoxifen” (GEORGE MASON INTELLECTUAL PROPERTIES, INC., priority 2007, published 2010).
# Test system: node negative breast cancer with estrogen receptor on tumors
# Details: women with node negative breast cancer and estrogen receptor on their tumors
structure (smiles),measurement,value
CC/C(=C(\c1ccccc1)c1ccc(OCCN(C)C)cc1)c1ccccc1 [Tamoxifen],eligible women who do not respond to Tamoxifen therapy,30-40%
